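Five compound concentrations were applied to cells in 96-well plates for 48 hours; endpoints were derived by simple linear interpolation of the resulting dose-response curve. TGI: total growth inhibition.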 Where a SMILES comes first, the peptide text is derived from it. The star is where a group is joined. Boc = CC(C)(C)OC(=O)*

Some test systems named below: MCF7 breast; ACHN renal; T-47D breast; IGROV1 ovarian; HCT-15 colon; CAKI-1 renal; UACC-257 melanoma; SNB-75 CNS; NCI-H226 lung; SR leukemia.
Common to all, as to assay: NCI anticancer screen, dose series, 48 h

For `O=C(c1ccc(Cl)cc1)N(C(=S)OCCOc1ccccc1)c1ccccc1`, the TGI came out at 32.4 µM in the assay with MCF7 breast; 47.9 µM with ACHN renal; 56.5 µM in the assay with T-47D breast; 38.1 µM in the assay on IGROV1 ovarian; 42.2 µM in the assay on HCT-15 colon; 41.2 µM in the assay on CAKI-1 renal. The same compound displayed a TGI in the assay with UACC-257 melanoma of 39.5 µM.

In the case of `Nc1nc(-c2ccco2)cc(-c2ccc(CO)o2)n1`, the TGI in the assay with ACHN renal, in the assay on SNB-75 CNS, in the assay on NCI-H226 lung, in the assay with IGROV1 ovarian, with HCT-15 colon and in the assay with SR leukemia was over 100 µM each time.

With `CC(C)Oc1c(-c2ccc(F)cc2)c(O)c2c3c1oc(=O)n3C=CC2C` (stereo not drawn), the TGI in the assay with MCF7 breast turned out to be 24.3 µM; in the assay with ACHN renal, 27.6 µM; in the assay on SNB-75 CNS it was 31.3 µM; in the assay with NCI-H226 lung, 26.9 µM; in the assay with IGROV1 ovarian, 29.2 µM; with HCT-15 colon, 29.7 µM. For the same compound, the TGI with CAKI-1 renal came out at 27.5 µM; with UACC-257 melanoma it was 26.3 µM.

`O=C1c2ccccc2N2Oc3ccccc3C12c1ccccc1` (stereo not drawn): the TGI with ACHN renal, in the assay on SNB-75 CNS, in the assay with NCI-H226 lung, with IGROV1 ovarian, in the assay with HCT-15 colon and with SR leukemia was over 100 µM in each case. In addition, the TGI in the assay with UACC-257 melanoma is over 100 µM.

For `Cc1ccc(N/C(SCc2ccccc2)=C(\C(Cl)=C(Cl)Cl)[N+](=O)[O-])c(C)c1`, the TGI with MCF7 breast was over 100 µM; in the assay with ACHN renal it was over 100 µM; with SNB-75 CNS it was 85.9 µM; in the assay with T-47D breast it was 69.3 µM; in the assay on NCI-H226 lung, over 100 µM; in the assay on HCT-15 colon, 34.9 µM. Moreover, the TGI in the assay on CAKI-1 renal is 50.8 µM; in the assay with UACC-257 melanoma, over 100 µM.

For the compound `COc1ccc(-c2oc3c(OC)c(OC)cc(O)c3c(=O)c2OC)cc1`, the TGI in the assay with MCF7 breast, in the assay with ACHN renal, in the assay on T-47D breast, with NCI-H226 lung, with IGROV1 ovarian and in the assay on HCT-15 colon was over 100 µM in each case. Further, the TGI in the assay on CAKI-1 renal and in the assay with UACC-257 melanoma was over 100 µM throughout.

Take `CC(=O)CC1=C(OC(C)C)C2(OCCO2)C1O` (stereo not drawn): the TGI in the assay on MCF7 breast, with ACHN renal, with SNB-75 CNS, in the assay with T-47D breast, with NCI-H226 lung and with IGROV1 ovarian was over 100 µM each time. The TGI in the assay on HCT-15 colon, in the assay with CAKI-1 renal and with UACC-257 melanoma was over 100 µM each time.

Turning to `N#CNC(=NCCc1c[nH]c2ccccc12)Oc1ccccc1`, the TGI with ACHN renal, with SNB-75 CNS, in the assay on NCI-H226 lung, in the assay with IGROV1 ovarian, in the assay on HCT-15 colon and in the assay on SR leukemia was over 100 µM throughout. For the same compound, the TGI in the assay with UACC-257 melanoma was over 100 µM.

On to `N#Cc1c(-c2ccccc2)c(CN2CCCCC2)c(=O)n2c1[nH]c1ccccc12`, for which the TGI in the assay on MCF7 breast, in the assay on ACHN renal, in the assay on SNB-75 CNS, in the assay on T-47D breast, in the assay with NCI-H226 lung and in the assay on IGROV1 ovarian was over 100 µM throughout. The TGI in the assay with HCT-15 colon, in the assay on CAKI-1 renal and in the assay with UACC-257 melanoma was over 100 µM each time.

Turning to `Cc1cccc(N/C(Sc2ccccc2)=C(/C(Cl)=C(Cl)Cl)[N+](=O)[O-])c1`, the TGI turned out to be 91.3 µM with MCF7 breast; 74.9 µM in the assay on ACHN renal; 68 µM with SNB-75 CNS; 42.7 µM in the assay on T-47D breast; 35.2 µM in the assay on NCI-H226 lung; 29.4 µM in the assay on HCT-15 colon. Also, the results for the TGI in the assay with CAKI-1 renal and in the assay on UACC-257 melanoma were 37.3 µM and 47.2 µM, respectively.

As to `Cn1cc(-c2csc(-c3cn(C)c4ccccc34)n2)c2ccccc21`, the TGI is over 100 µM with MCF7 breast; over 100 µM with ACHN renal; 89.6 µM in the assay on T-47D breast; over 100 µM in the assay with NCI-H226 lung; over 100 µM in the assay with IGROV1 ovarian; over 100 µM in the assay on HCT-15 colon. Besides, the TGI in the assay on CAKI-1 renal and in the assay on UACC-257 melanoma was over 100 µM in each case.

Regarding `CNc1nc(C(N)=O)c(N)s1`, the TGI with ACHN renal, in the assay with T-47D breast, in the assay with NCI-H226 lung, in the assay on IGROV1 ovarian, in the assay with HCT-15 colon and with CAKI-1 renal was over 100 µM in each case. Also, the TGI with UACC-257 melanoma is over 100 µM.

For `O=C(N/N=C(/COc1ccccc1)N=Cc1cccnc1)c1ccncc1`, the TGI in the assay on MCF7 breast, with ACHN renal, with SNB-75 CNS, in the assay on T-47D breast, in the assay on NCI-H226 lung and in the assay on IGROV1 ovarian was over 100 µM in each case. The TGI in the assay on HCT-15 colon, in the assay with CAKI-1 renal and in the assay on UACC-257 melanoma was over 100 µM each time.

Consider `COC(=O)[C@H](Cc1ccc(O)cc1)NC(=O)[C@H](Cc1ccc(O)cc1)NC(=O)OC(C)(C)C` (Boc-Tyr-Tyr-OMe), for which the TGI in the assay with MCF7 breast, in the assay on ACHN renal, in the assay on SNB-75 CNS, in the assay on NCI-H226 lung, in the assay with IGROV1 ovarian and in the assay with HCT-15 colon was over 100 µM throughout. The TGI with CAKI-1 renal and in the assay on UACC-257 melanoma was over 100 µM throughout.

Regarding `Cc1n(Cc2ccccc2)nc2sc(N)n[n+]12`, the TGI in the assay on MCF7 breast, in the assay on ACHN renal, with SNB-75 CNS, with T-47D breast, in the assay on NCI-H226 lung and in the assay on IGROV1 ovarian was over 100 µM each time. Besides, the TGI with HCT-15 colon, in the assay with CAKI-1 renal and in the assay on UACC-257 melanoma was over 100 µM each time.

As to `NC(=O)NC12CC3CC(CC(F)(C3)C1)C2`, the TGI in the assay with ACHN renal, with SNB-75 CNS, with IGROV1 ovarian and in the assay with UACC-257 melanoma was over 100 µM in each case.

With `Fc1ccc(C(OCCN2CC3CCC(C2)N3CCCc2ccccc2)c2ccc(F)cc2)cc1`, the TGI turned out to be 10.7 µM with MCF7 breast; 22.4 µM in the assay on ACHN renal; 17 µM in the assay with SNB-75 CNS; 6.28 µM with T-47D breast; 13.1 µM in the assay with NCI-H226 lung; 21.1 µM in the assay with IGROV1 ovarian. For the same compound, the TGI is 12.2 µM with HCT-15 colon, 19.1 µM in the assay with CAKI-1 renal and 11.9 µM in the assay with UACC-257 melanoma.

On to `CC[C@@]1(O)C(=O)OCc2c1cc1n(c2=O)Cc2c-1nc1ccccc1c2/C=N/NC(=O)c1ccc(N)cc1`, for which the TGI in the assay on MCF7 breast is over 100 µM; with T-47D breast, 0.389 µM; in the assay with NCI-H226 lung, 0.528 µM; with HCT-15 colon, over 100 µM; with CAKI-1 renal it was 5.06 µM; with UACC-257 melanoma, over 100 µM.

Consider `CC(Cl)CC(=O)OCC1CCCN2CCCCC12` (stereo not drawn), for which the TGI with MCF7 breast, in the assay on ACHN renal, in the assay with SNB-75 CNS, in the assay with T-47D breast, in the assay with NCI-H226 lung and in the assay with HCT-15 colon was over 100 µM in each case. Further, the TGI in the assay with CAKI-1 renal and with UACC-257 melanoma was over 100 µM in each case.

Turning to `CCOc1ccc(N/C(=C(/C(Cl)=C(/Cl)NC(C)(C)C)[N+](=O)[O-])n2nnc3ccccc32)cc1`, the TGI with MCF7 breast was 65.1 µM; in the assay with ACHN renal it was over 100 µM; in the assay on SNB-75 CNS, 54 µM; in the assay with T-47D breast, 32 µM; in the assay with NCI-H226 lung it was over 100 µM; with HCT-15 colon, 39 µM. Besides, the figures for the TGI in the assay with CAKI-1 renal and in the assay with UACC-257 melanoma were 35.3 µM and over 100 µM, respectively.

On to `CC1(C)N=C(C2CCCN2C(=O)OCc2ccccc2)OC1=O` (stereo not drawn), for which the TGI in the assay with MCF7 breast, in the assay on ACHN renal, with SNB-75 CNS, with NCI-H226 lung, with IGROV1 ovarian and with HCT-15 colon was over 100 µM in each case. Moreover, the TGI with CAKI-1 renal and in the assay with UACC-257 melanoma was over 100 µM each time.

Regarding `CC(C)N(C(C)C)S(=O)(=O)C[C@]12CC[C@H](CC13OCC(CS(=O)(=O)c1ccccc1)O3)C2(C)C` (stereo partly drawn), the TGI was over 100 µM with MCF7 breast; over 100 µM in the assay with ACHN renal; over 100 µM in the assay with SNB-75 CNS; over 100 µM with T-47D breast; over 100 µM in the assay with NCI-H226 lung; over 59.5 µM in the assay with IGROV1 ovarian. Moreover, the TGI was over 100 µM in the assay on HCT-15 colon, over 100 µM with CAKI-1 renal and over 80.3 µM in the assay on UACC-257 melanoma.

Take `CCOC(=O)C(Cl)(NC(=O)OCc1ccccc1)C(F)(F)F` (stereo not drawn): the TGI in the assay on MCF7 breast, in the assay with ACHN renal, with SNB-75 CNS, in the assay with T-47D breast, in the assay on NCI-H226 lung and in the assay on IGROV1 ovarian was over 100 µM each time. Besides, the TGI in the assay with HCT-15 colon, in the assay with CAKI-1 renal and in the assay with UACC-257 melanoma was over 100 µM each time.

`COc1ccc(NC(=S)c2ccoc2C)cc1CC(=O)OC(C)C`: the TGI in the assay on MCF7 breast is 51.5 µM; with ACHN renal, over 100 µM; in the assay on SNB-75 CNS, 93.9 µM; in the assay on T-47D breast it was over 100 µM; in the assay on NCI-H226 lung it was 68 µM; in the assay on IGROV1 ovarian, over 100 µM. Further, the TGI with HCT-15 colon, with CAKI-1 renal and with UACC-257 melanoma was over 100 µM in each case.

Values taken from PubChem BioAssay (NCI).
